Laboratory results as given in PubChem BioAssay (NCI).
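GI50 marks 50% less growth. The concentration for full growth arrest is given as TGI.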

Tests used:
Assay in all cases: DTP human tumour cell line panel, 384-well format
[1] = system: 786-0 renal
[2] = system: MALME-3M melanoma
[3] = system: SK-MEL-28 melanoma
[4] = system: HOP-92 NSCLC
[5] = system: SR leukemia
[6] = system: HL-60(TB) leukemia
[7] = system: SF-268 CNS
[8] = system: SF-295 CNS
[9] = system: SN12C renal
[10] = system: HCC-2998 colon
[11] = system: SW-620 colon
[12] = system: A549 NSCLC
[13] = system: NCI-H23 lung
[14] = system: RPMI-8226 leukemia
[15] = system: OVCAR-4 ovarian
[16] = system: PC-3 prostate
[17] = system: NCI-H460 NSCLC
[18] = system: A498 renal
[19] = system: HCT-116 colon
[20] = system: NCI-H322M lung
[21] = system: KM12 colon
[22] = system: MDA-MB-435 melanoma
[23] = system: CCRF-CEM leukemia
[24] = system: TK-10 renal
[25] = system: K-562 leukemia
[26] = system: M14 melanoma
[27] = system: NCI-H522 lung
[28] = system: SF-539 CNS
[29] = system: LOX IMVI melanoma
[30] = system: NCI-H226 lung
[31] = system: SNB-75 CNS
[32] = system: HCT-15 colon
[33] = system: COLO 205 colon
[34] = system: CAKI-1 renal
[35] = system: EKVX NSCLC
[36] = system: MCF7 breast
[37] = system: MDA-MB-231 breast
[38] = system: HT29 colon
[39] = system: IGROV1 ovarian
[40] = system: NCI/ADR-RES ovarian
[41] = system: MOLT-4 leukemia
[42] = system: BT-549 breast
[43] = system: OVCAR-8 ovarian
[44] = system: SNB-19 CNS
[45] = system: OVCAR-5 ovarian
[46] = system: ACHN renal
[47] = system: HOP-62 NSCLC

Question: With `CC(O)[C@H](NC(=O)N[C@@H](CC(N)=O)c1nc(N2CCNCC2)no1)C(=O)O` (some centres undefined) as the compound, how does the GI50 [1] read?
Answer: > 100 µM

Question: And the TGI [1]?
Answer: > 100 µM

Question: And the GI50 [2]?
Answer: > 100 µM

Question: What about the TGI [2] of the same compound?
Answer: > 100 µM

Question: What about the GI50 [3] of the same compound?
Answer: > 100 µM

Question: What about the TGI [3] of the same compound?
Answer: > 100 µM

Question: What about the GI50 [4] of the same compound?
Answer: > 100 µM

Question: What about the TGI [4] of the same compound?
Answer: > 100 µM

Question: And the GI50 [5]?
Answer: > 100 µM

Question: What about the TGI [5] of the same compound?
Answer: > 100 µM

Question: And the GI50 [6]?
Answer: > 100 µM

Question: And the TGI [6]?
Answer: > 100 µM

Question: And the GI50 [7]?
Answer: > 100 µM

Question: What about the TGI [7] of the same compound?
Answer: > 100 µM

Question: And the GI50 [8]?
Answer: > 100 µM

Question: And the TGI [8]?
Answer: > 100 µM

Question: What about the GI50 [9] of the same compound?
Answer: > 100 µM

Question: And the TGI [9]?
Answer: > 100 µM

Question: What about the GI50 [10] of the same compound?
Answer: > 100 µM

Question: What about the TGI [10] of the same compound?
Answer: > 100 µM

Question: What about the GI50 [11] of the same compound?
Answer: > 100 µM

Question: And the TGI [11]?
Answer: > 100 µM

Question: What about the GI50 [12] of the same compound?
Answer: > 100 µM

Question: What about the TGI [12] of the same compound?
Answer: > 100 µM

Question: What about the GI50 [13] of the same compound?
Answer: > 100 µM

Question: And the TGI [13]?
Answer: > 100 µM

Question: And the GI50 [14]?
Answer: > 100 µM

Question: And the TGI [14]?
Answer: > 100 µM

Question: And the GI50 [15]?
Answer: > 100 µM

Question: And the TGI [15]?
Answer: > 100 µM

Question: What about the GI50 [16] of the same compound?
Answer: > 100 µM

Question: What about the TGI [16] of the same compound?
Answer: > 100 µM

Question: And the GI50 [17]?
Answer: > 100 µM

Question: What about the TGI [17] of the same compound?
Answer: > 100 µM

Question: And the GI50 [18]?
Answer: > 100 µM

Question: And the TGI [18]?
Answer: > 100 µM

Question: And the GI50 [19]?
Answer: > 100 µM

Question: And the TGI [19]?
Answer: > 100 µM

Question: And the GI50 [20]?
Answer: > 100 µM

Question: And the TGI [20]?
Answer: > 100 µM

Question: What about the GI50 [21] of the same compound?
Answer: > 100 µM

Question: And the TGI [21]?
Answer: > 100 µM

Question: And the GI50 [22]?
Answer: > 100 µM

Question: What about the TGI [22] of the same compound?
Answer: > 100 µM

Question: And the GI50 [23]?
Answer: > 100 µM

Question: What about the TGI [23] of the same compound?
Answer: > 100 µM

Question: What about the GI50 [24] of the same compound?
Answer: > 100 µM

Question: And the TGI [24]?
Answer: > 100 µM

Question: What about the GI50 [25] of the same compound?
Answer: > 100 µM

Question: And the TGI [25]?
Answer: > 100 µM

Question: And the GI50 [26]?
Answer: > 100 µM

Question: And the TGI [26]?
Answer: > 100 µM

Question: And the GI50 [27]?
Answer: > 100 µM

Question: And the TGI [27]?
Answer: > 100 µM

Question: What about the GI50 [28] of the same compound?
Answer: > 100 µM

Question: And the TGI [28]?
Answer: > 100 µM

Question: And the GI50 [29]?
Answer: > 100 µM

Question: What about the TGI [29] of the same compound?
Answer: > 100 µM

Question: And the GI50 [30]?
Answer: > 100 µM

Question: And the TGI [30]?
Answer: > 100 µM

Question: What about the GI50 [31] of the same compound?
Answer: > 100 µM

Question: And the TGI [31]?
Answer: > 100 µM

Question: What about the GI50 [32] of the same compound?
Answer: > 100 µM

Question: What about the TGI [32] of the same compound?
Answer: > 100 µM

Question: What about the GI50 [33] of the same compound?
Answer: > 100 µM

Question: And the TGI [33]?
Answer: > 100 µM

Question: What about the GI50 [34] of the same compound?
Answer: > 100 µM

Question: And the TGI [34]?
Answer: > 100 µM

Question: What about the GI50 [35] of the same compound?
Answer: > 100 µM

Question: What about the TGI [35] of the same compound?
Answer: > 100 µM

Question: And the GI50 [36]?
Answer: > 100 µM

Question: And the TGI [36]?
Answer: > 100 µM

Question: And the GI50 [37]?
Answer: > 100 µM

Question: What about the TGI [37] of the same compound?
Answer: > 100 µM

Question: What about the GI50 [38] of the same compound?
Answer: > 100 µM

Question: And the TGI [38]?
Answer: > 100 µM

Question: What about the GI50 [39] of the same compound?
Answer: > 100 µM

Question: What about the TGI [39] of the same compound?
Answer: > 100 µM

Question: And the GI50 [40]?
Answer: > 100 µM

Question: And the TGI [40]?
Answer: > 100 µM

Question: What about the GI50 [41] of the same compound?
Answer: > 100 µM

Question: And the TGI [41]?
Answer: > 100 µM

Question: What about the GI50 [42] of the same compound?
Answer: > 100 µM

Question: What about the TGI [42] of the same compound?
Answer: > 100 µM

Question: And the GI50 [43]?
Answer: > 100 µM

Question: What about the TGI [43] of the same compound?
Answer: > 100 µM

Question: And the GI50 [44]?
Answer: > 100 µM

Question: And the TGI [44]?
Answer: > 100 µM

Question: And the GI50 [45]?
Answer: > 100 µM

Question: And the TGI [45]?
Answer: > 100 µM

Question: And the GI50 [46]?
Answer: > 100 µM

Question: What about the TGI [46] of the same compound?
Answer: > 100 µM

Question: And the GI50 [47]?
Answer: > 100 µM

Question: And the TGI [47]?
Answer: > 100 µM
